Reference: paper PMC11212140, “Molecular Bidents with Two Electrophilic Warheads as a New Pharmacological Modality” (ACS Central Science, 2024)
pIC50: −log10 of the molar value. Read-outs that look alike come from different tables or passages of the source.

Columns and labels:
[1] = tested on: EGFR^L858R/C775S Ba/F3 cells; assay: Antiproliferation assay (CellTiter-Glo); type: cell-based; settings: vs EGFR^L858R Ba/F3
Protocol: (§1) Figure S6 Dose-response curves for the indicated compounds in EGFRL858R, EGFRL858R/C797S, and EGFRL858R/C775S Ba/F3 cells following 72 h of treatment. Cell viability was assessed with CellTiter-Glo.
(§2) Data are presented as the mean ± SEM (n = 4). Representative data from three independent experiments
(§3) (1 picture or pasted object on this page, not shown here)
(§4) For infection of Ba/F3 cells, 2.5 mL of viral supernatant and 8 μg/mL polybrene was added to 2.5 million cells per well in six-well plates. The plate was centrifuged at 2500 rpm for 90 minutes at 37 °C for the spin infection. Then, virus-containing medium was removed 48 hours later and successfully infected cells were selected with the addition of 1 μg/mL puromycin to the medium.
(§5) After 3 days, cells were transferred into the fresh medium without IL-3 and puromycin. IL-3-independent transformed cells were maintained in RPMI medium 1640 supplemented with 10%
(§6) FBS. Expression of EGFR was examined by Western blot.
(§7) Immunoblotting and antibodies
(§8) Cells were lysed in RIPA buffer (150 mM NaCl, 1.0% IGEPAL® CA-630, 0.5% sodium deoxycholate, 0.1% SDS, 50 mM Tris, pH 8.0) (Sigma, Cat# R0278) with protease inhibitor and phosphatase inhibitor (Roche). The protein concentrations were measured by BCA analysis (Thermo Fisher Scientific, Cat # PI23225). […]
(§9) or IRDye 680RD goat anti-Mouse IgG (LICOR Biosciences , Cat # 926-68070) secondary antibodies at room temperature for 1 hour. The membranes were detected on Odyssey CLx system. […]
(§10) treatment. Cell viability was determined by using CellTiter-Glo (Promega #G7571) according to the manufacturer’s instructions, measuring luminescence using an Envision plate-reader (PerkinElmer Inc.). […]
(§11) After 6 hours treatment, cells were pelleted, washed with PBS once and lysed with IP lysis buffer (25mMTris-HCl pH 7.4, 150mM NaCl, 1 mM EDTA, 1% NP-40 and 5% glycerol) (Thermo Fisher Scientific, Cat#87788) containing protease/phosphatase inhibitor cocktail (Roche). The protein concentrations were measured by BCA analysis (Pierce). […]

[2] = tested on: EGFR^L858R Ba/F3 cells; assay: Antiproliferation assay (CellTiter-Glo); type: cell-based; settings: vs ZNL-0056 and ZNL-0091
Protocol: as §1, §2, §3, §4, §5, §6, §7, §8, §9, §10, §11

[3] = tested on: p-JNK1/2; assay: Immunoblot of MKK7-JNK pathway in MDA-MB-231 cells; type: cell-based; settings: MDA-MB-231, anisomycin, 16 h, up to 10 μM
Protocol: Figure S1. Effects of the indicated compounds on the MKK7 -JNK pathway in MDA -MB-231 cells after 16 h treatment. MDA -MB-231 cells were pretreated with anisomycin for 45 min prior to the addition of the indicated compounds f or 16 h. Representative data from two independent […]
Anisomycin (10 μg/mL) - + + +
(1 picture or pasted object on this page, not shown here) […]
as §7
Cells were lysed in RIPA buffer (150 mM NaCl, 1.0% IGEPAL® CA-630, 0.5% sodium deoxycholate, 0.1% SDS, 50 mM Tris, pH 8.0) (Sigma, Cat# R0278) with protease inhibitor and phosphatase inhibitor (Roche). The protein concentrations were measured by BCA analysis (Thermo Fisher Scientific, Cat # PI23225). Equal amounts of protein were resolved by 4-12% Bis-Tris gels (Life Technologies), and then transferred to the Immuno-Blot PVDF membrane (BioRad, cat # 1620177). The membranes were blocked by Intercept blocking buffer (LI-COR, cat #927-60001) for 1 hour at room temperature. Proteins were probed with appropriate primary antibodies at 4 ℃ overnight and then with IRDye®800-labeled goat anti-rabbit IgG (LICOR Biosciences, cat […]
or IRDye 680RD goat anti-Mouse IgG (LICOR Biosciences , Cat # 926-68070) secondary antibodies at room temperature for 1 hour. The membranes were detected on Odyssey CLx system.
Antibodies used in this study include anti-following proteins: EGFR (Cell signaling Technology, […]
Akt (Cell signaling Technology, # 9272L, 1:1000), p-Akt (Cell Signaling Technology, #4060S,

[4] = target: T1, MKK7 (Homo sapiens, UniProt O14733); assay: MKK7 binding, KdELECT assays (DiscoverX); settings: for fold loss of potency: vs ZNL-8162
T1 construct: purchased DiscoverX
T1 sequence (O14733 1-419): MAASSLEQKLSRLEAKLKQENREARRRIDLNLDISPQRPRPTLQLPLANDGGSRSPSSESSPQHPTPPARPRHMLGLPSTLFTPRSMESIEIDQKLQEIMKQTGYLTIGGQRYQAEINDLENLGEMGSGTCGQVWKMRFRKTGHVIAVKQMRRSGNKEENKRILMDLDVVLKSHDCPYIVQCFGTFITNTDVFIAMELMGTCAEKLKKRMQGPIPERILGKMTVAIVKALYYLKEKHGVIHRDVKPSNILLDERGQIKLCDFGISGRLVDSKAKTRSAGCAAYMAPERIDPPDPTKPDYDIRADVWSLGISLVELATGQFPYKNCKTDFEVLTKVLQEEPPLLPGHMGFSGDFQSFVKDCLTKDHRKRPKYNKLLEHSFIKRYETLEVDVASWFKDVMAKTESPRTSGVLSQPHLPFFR
From the text: Figure 2 ZNL-8162 is a molecular bident for MKK7. (A) Compound structures for MKK7-targeting molecular bident (ZNL-8162) and its relatives lacking one or both cysteine-reactive groups. (B) Covalent modeling for ZNL-8162 engagement of MKK7(PDB: 6YG3). (C) MS/MS spectrum of ZNL-8162 covalently modifying Cys218 and Cys276 of MKK7. Red and yellow circles indicate ions of type y for sequences marked (1) and (2), respectively. Blue circles indicate ions of b for sequence (1). *, carbamidomethyl cysteine, Δ, oxidized methionine. (D) MKK7 binding data were obtained from KdELECT assays (DiscoverX). Data are presented as mean ± s.d. of n = 2 biologically independent samples.
Table S2. […]

[5] = tested on: T2, EGFR; assay: Cellular target engagement assays (competitive pulldown); type: cell-based; settings: 1 μM probe
T2 construct: expressed in transfected cells; host or cells: Ba/F3 (murine pro-B cells transduced with an EGFR mutant expression vector)
Protocol: Figure 4 ZNL-0056 covalently engages Cys775 and Cys797 in EGFR Ba/F3 cells. (A) Carton of competition EGFR pulldown strategy to test covalent EGFR engagement in cells. (B) Competitive pulldown assay in EGFR^L858R Ba/F3 cells treated with ZNL-0056 at the indicated concentrations for 6 h. Cell lysates were incubated with bio-osimertinib. (C) Competitive pulldown assay in EGFR^L858R Ba/F3 cells treated with ZNL-0056 at the indicated concentrations for 6 h. Cell lysates were incubated with bio-ZNL-0013, which competes for the binding pocket of the target kinase. (D) Competitive pulldown assay in EGFR^L858R/C797S Ba/F3 cells treated with ZNL-0056 at the indicated concentrations for 6 h. Cell lysates were incubated with bio-ZNL-0013, which competes for the binding pocket of the target kinase. Western blotting showing the pulldown (PD) or input (total lysate) of EGFR. […]
as §10, §11

[6] = Figure 2D, read-out: IC50 against MKK7

Row | SMILES | inhibition of p-JNK1/2 [3] | pIC50 [4, 6] | fold loss of potency [4] | also measured
1 | C=CC(=O)Nc1cc(C(=O)Nc2nc3cccc(C)c3n2[C@@H]2CCCCN(C(C)=O)C2)cs1 [ZNL-0013] | – | – | – | potency loss (shift) in the EGFR^L858R/C775S mutant [1]: 20 fold; cell growth inhibition activity, fold weaker [2]: about 5 fold
2 | C=CC(=O)Nc1ccccc1Nc1nc(NC2CCN(C(=O)C=C)C2)ncc1Cl (centres unmarked) [ZNL-8162] | strong inhibition | 6.88 | – | pIC50 ([4]; from ZNL-8163 and ZNL-8165 IC50 data, read-out: IC50 estimated from single warhead compounds assuming independent contributions from both covalent bonds): ~6.74
3 | C=CC(=O)Nc1ccccc1Nc1nc(NC2CCN(C(=O)CC)C2)ncc1Cl (centres unmarked) [ZNL-8163] | less potency | 6.36 | ~3 fold | –
4 | C=CC(=O)N1CCC(Nc2ncc(Cl)c(Nc3ccccc3NC(=O)CC)n2)C1 (centres unmarked) [ZNL-8165] | less potency | 6.50 | ~3 fold | –
5 | CCC(=O)Nc1ccccc1Nc1nc(NC2CCN(C(=O)CC)C2)ncc1Cl (centres unmarked) [ZNL-8166] | did not exhibit any inhibition | < 5.00 | – | –
6 | C=CC(=O)Nc1cc(C(=O)Nc2nc3cccc(C)c3n2[C@@H]2CCCCN(C(=O)CCOCCOCCOCCOCCNC(=O)CCCC[C@@H]3SC[C@@H]4NC(=O)N[C@@H]43)C2)cs1 [bio-ZNL-0013] | – | – | – | enrichment of EGFR from cell lysate under denaturing conditions [5]: significant enrichment
